Data from US20090105270A1, “Kinase inhibition and anticancer therapy” (priority 2007, published 2009).

Assays:
cKit(D816V)(h) = target: T1, cKit(D816V)(h) (Homo sapiens, UniProt P10721, D816V); experiment: Upstate kinase activity inhibition assay cKit(D816V)(h); type: biochemical; conditions: 40 min, read-out: percentage of enzyme activity that remains
T1 construct: purchased Upstate (KinaseProfiler service)

CHK1(h) = CHK1(h) (Homo sapiens, UniProt O14757); experiment: Upstate kinase activity inhibition assay CHK1(h)
CHK1(h), sequence (O14757 whole entry): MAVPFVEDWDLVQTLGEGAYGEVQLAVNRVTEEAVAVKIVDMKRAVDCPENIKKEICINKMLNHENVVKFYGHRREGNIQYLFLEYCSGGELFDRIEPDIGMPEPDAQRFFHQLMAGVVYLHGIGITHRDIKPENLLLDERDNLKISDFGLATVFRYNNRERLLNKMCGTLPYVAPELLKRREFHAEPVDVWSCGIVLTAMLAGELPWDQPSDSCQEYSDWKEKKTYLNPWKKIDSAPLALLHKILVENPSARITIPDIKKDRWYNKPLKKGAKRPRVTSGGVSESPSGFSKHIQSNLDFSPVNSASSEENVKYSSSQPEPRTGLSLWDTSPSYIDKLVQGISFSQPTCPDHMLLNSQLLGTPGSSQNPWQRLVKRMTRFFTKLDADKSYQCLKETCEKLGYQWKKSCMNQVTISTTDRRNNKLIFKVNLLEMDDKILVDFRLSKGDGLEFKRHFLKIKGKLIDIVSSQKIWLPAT

T1 sequence (P10721 26-976 D816V): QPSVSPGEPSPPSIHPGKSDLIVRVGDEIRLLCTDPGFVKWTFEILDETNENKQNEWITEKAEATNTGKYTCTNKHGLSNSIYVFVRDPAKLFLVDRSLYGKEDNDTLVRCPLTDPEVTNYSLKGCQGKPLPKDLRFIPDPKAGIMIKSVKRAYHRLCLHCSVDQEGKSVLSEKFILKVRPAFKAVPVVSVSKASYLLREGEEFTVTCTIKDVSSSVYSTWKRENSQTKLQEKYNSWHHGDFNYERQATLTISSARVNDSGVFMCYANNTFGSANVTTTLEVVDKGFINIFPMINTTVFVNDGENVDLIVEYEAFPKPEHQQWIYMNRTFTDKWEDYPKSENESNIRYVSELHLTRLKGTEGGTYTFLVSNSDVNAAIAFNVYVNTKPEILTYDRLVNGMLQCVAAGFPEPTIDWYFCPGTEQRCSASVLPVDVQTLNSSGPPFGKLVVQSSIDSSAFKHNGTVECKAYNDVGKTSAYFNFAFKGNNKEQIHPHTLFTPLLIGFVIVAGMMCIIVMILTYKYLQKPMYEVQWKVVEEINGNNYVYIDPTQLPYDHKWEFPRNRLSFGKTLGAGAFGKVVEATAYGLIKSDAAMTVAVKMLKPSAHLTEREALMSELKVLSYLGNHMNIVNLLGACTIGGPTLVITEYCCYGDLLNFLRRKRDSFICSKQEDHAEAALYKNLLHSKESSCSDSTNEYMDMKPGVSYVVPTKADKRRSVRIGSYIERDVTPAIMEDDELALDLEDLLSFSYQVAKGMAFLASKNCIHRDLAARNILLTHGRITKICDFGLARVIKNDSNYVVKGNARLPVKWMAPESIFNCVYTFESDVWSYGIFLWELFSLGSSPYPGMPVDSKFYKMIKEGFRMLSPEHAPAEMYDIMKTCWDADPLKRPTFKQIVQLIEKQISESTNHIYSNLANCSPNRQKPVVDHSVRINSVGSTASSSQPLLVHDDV

Q: With `Cc1cc(Nc2cc(N3CCN(C)CC3)nc(Sc3ccc(NC(=O)C4CC4)cc3)n2)n[nH]1` [Compound E, Cyclopropane carboxylic acid {4-[4-(4-methyl-piperazin-1-yl)-6-(5-methyl-2H-pyrazol-3-ylamino)-pyrimidin-2-ylsulphanyl]-phenyl}-amide] as the compound, how does the remaining activity at 0.2 µM (cKit(D816V)(h)) read?
A: 89%

Q: What about the remaining activity at 4 µM (cKit(D816V)(h)) of the same compound?
A: 79%

Q: And the “percentage of enzyme activity that remains” value (CHK1(h); 0.2 μM Compound E)?
A: 99%

Q: What about the “percentage of enzyme activity that remains” value (CHK1(h); 4 μM Compound E) of the same compound?
A: 92%
